Results reported in patent US20090269770A1, “METHODS FOR EVALUATION PROGNOSIS AND FOLLOW-UP OF DRUG TREATMENT OF PSYCHIATRIC DISEASES OR DISORDERS” (priority 2008, published 2009).
“And” between values parts separate entries of the source, which are not always exact repeats. Identical values can stand only once. “Also recorded” adds a separate entry of the source.

Test system: PMC from schizophrenic patients
Test: GPCR cDNA array (GEArray Q series) of PMC gene expression, fluvoxamine augmentation
Format: in vivo, human
Design: key to Gene expression change CCR5 (X91492), divided by week 0 / Gene expression change CCR7 (L31581), divided by week 0 / Gene expression change CCRL1 (AF110640), divided by week 0 / Gene expression change CRL1 (U79527), divided by week 0 / Gene expression change IL8Rα (L19591), divided by week 0 / Gene expression change RGS7 (BC022009), divided by week 0 / Gene expression change 5-HT2A (X57830), divided by week 0 / Gene expression change 5-HT7 (L21195), divided by week 0 / Gene expression change CCR1 (D10925), divided by week 0: D—down regulation (<0.7); U—up regulation (>1.3); nc—No change; nd—Not detected
Settings: for Gene expression change 5-HT2A (X57830), divided by week 0 / Gene expression change 5-HT7 (L21195), divided by week 0 / Gene expression change CCR1 (D10925), divided by week 0 / Gene expression change CCR5 (X91492), divided by week 0 / Gene expression change CCR7 (L31581), divided by week 0 / Gene expression change CCRL1 (AF110640), divided by week 0 / Gene expression change CRL1 (U79527), divided by week 0 / Gene expression change IL8Rα (L19591), divided by week 0 / Gene expression change RGS7 (BC022009), divided by week 0: PMC, one cell per patient I-VI
Protocol: Patients suffering from chronic schizophrenia (DSM IV criteria) with at least 2 years of illness (range 2-17 years) and persistent negative symptoms were chosen from an Israeli mental health center, as shown in Table 1. To qualify for inclusion in the study, these patients were required to be on constant antipsychotic medication for at least 6 months prior to the study and on an unchanged dose for at least 4 weeks before entry.
Fluvoxamine (100 mg/day) was added in an open study format to the antipsychotic treatment, which remained steady. Clinical state was assessed by psychiatrists using validated rating scales for negative (SANS) and positive (SAPS) symptoms (Silver et al., 2003) prior to fluvoxamine treatment and then weekly until the end of the trial period. Total SANS scores and summary scores for […] blunting, alogia, anhedonia and […] factors were the outcome measures. Extrapyramidal symptoms were assessed with the Simpson-Angus Scale (SAS) for extrapyramidal side effects (Simpson and Angus, 1970). Blood samples were taken at baseline (day 0), before addition of fluvoxamine, after 3 weeks of combined treatment, a time when the initial clinical effect is expected to be seen (Silver et al., 2003), and after 6 weeks of the combined treatment.
Blood samples (40 ml) from patients were collected in EDTA-coated tubes in order to prevent coagulation, and transported in ice to the laboratory for further processing. Each 15 ml of blood was completed to 40 ml with phosphate buffered saline (PBS) and gently mixed. PMC were isolated according to Ficoll protocol (Sigma, USA). In short, after addition of Ficoll reagent, the tubes were centrifuged (400 g, 30 min), and the interphase was transferred to a new tube, mixed with 100 ml PBS and centrifuged (400 g, 10 min). The supernatant was discarded and the pellet containing the PMC was washed 3 times with PBS (400 g, 10 min). TriReagent (Sigma, USA) was added to the pellet and left on ice for 15 min.
[…] chloroform was added to 1 ml of sample in TriReagent and the suspension was centrifuged (12,000 g, 20 min, 4° C.). After precipitation with isopropanol, the RNA pellet was washed twice with 70% ethanol (7,500 g, 10 min), followed by one wash with 96% ethanol (12,000 g, 10 min) and resuspended in diethylpyrocarbonate (DEPC)-treated water. RNA sample concentrations were determined by UV spectrophotometry at 260 nm (average OD260/2801.9-2). RNA purity was determined by the 260/230 and 260/280 ratios. RNA integrity was confirmed using gel (1.2% agarose) electrophoresis by direct visualization of 18S and 28S rRNA bands and densitometric analysis.
In the next step, gene expression profiles were examined with GEArray™ cDNA membranes, consisting of genes related to G protein-coupled receptor (GPCR) pathways (Q series human G protein-coupled receptor gene array II, SuperArray, Bethesda, Md., USA). Each membrane consists of 100 human cDNAs fragments associated with GPCR family, including receptors for dopamine (DA), serotonin (5-HT), acetylcholine and epinephrine; receptors for chemokines; GPCR kinases; Mitogen activated protein kinases; and regulators of G-protein signaling (RGS). Hybridization array analysis was performed according to the manufacturer's (SuperArray, Bethesda, Md.) protocol. Total RNA from each patient was reverse transcribed with biotinylated dUTP (Roche Diagnostics, Mannheim, Germany) and a gene specific primer mix (SuperArray, Bethesda, Md.). The probes were hybridized to the membrane and the array image was recorded using X-ray film. Quantitation of the results and analysis was accomplished using the manufacturer Software Package (SuperArray, Bethesda, Md.). The row values from 4 spotted replicates of a gene were averaged, normalized to the median of all intensity values on array and compared to control values, thereby assessing the relative expression level of a given mRNA. […]

[1] = after 3 weeks or more of the combined treatment
[2] = in at least 4 out of the 6 subjects after 3 weeks or more of the combined treatment

COCCCC/C(=N\OCCN)c1ccc(C(F)(F)F)cc1 [fluvoxamine]
expression level of CCR5 [1]: increase
transcript encoding 5-HR7 [1]: reduced expression level
transcript encoding 5-HT2A [1]: reduced expression level
transcript encoding RGS7 [1]: reduced expression level
expression level of CCR1 [2]: decrease
expression level of CCRL1 [2]: decrease
expression level of CMKLR1 [2]: decrease
expression level of IL8Rα [2]: decrease
Gene expression change 5-HT2A (X57830), divided by week 0 (week 3): D (D—down regulation (<0.7)) (4×) and nc
Gene expression change 5-HT7 (L21195), divided by week 0 (week 3): D (D—down regulation (<0.7)) (4×) and nc
Gene expression change CCR1 (D10925), divided by week 0 (week 3): D (D—down regulation (<0.7)) (3×) and nc
Gene expression change CCR5 (X91492), divided by week 0 (week 3): U (U—up regulation (>1.3))
Gene expression change CCR7 (L31581), divided by week 0 (week 3): nc (2×) and D (D—down regulation (<0.7)) (3×) and U (U—up regulation (>1.3))
Gene expression change CCRL1 (AF110640), divided by week 0 (week 3): nc (3×) and D (D—down regulation (<0.7)) (3×)
Gene expression change CRL1 (U79527), divided by week 0 (week 3): D (D—down regulation (<0.7)) (4×) and nc (2×)
Gene expression change IL8Rα (L19591), divided by week 0 (week 3): D (D—down regulation (<0.7)) (3×) and nc and U (U—up regulation (>1.3)) (2×)
Gene expression change RGS7 (BC022009), divided by week 0 (week 3): D (D—down regulation (<0.7)) (2×) and nc (3×) and U (U—up regulation (>1.3))
Gene expression change 5-HT2A (X57830), divided by week 0 (week 6): nc and D (D—down regulation (<0.7)) (4×)
Gene expression change 5-HT7 (L21195), divided by week 0 (week 6): D (D—down regulation (<0.7)) (4×) and nc
Gene expression change CCR1 (D10925), divided by week 0 (week 6): D (D—down regulation (<0.7)); also recorded: U (U—up regulation (>1.3))
Gene expression change CCR5 (X91492), divided by week 0 (week 6): U (U—up regulation (>1.3)) and nc (2×) and D (D—down regulation (<0.7))
Gene expression change CCR7 (L31581), divided by week 0 (week 6): U (U—up regulation (>1.3)) (3×) and nc (2×) and D (D—down regulation (<0.7))
Gene expression change CCRL1 (AF110640), divided by week 0 (week 6): U (U—up regulation (>1.3)) (2×) and nc (2×) and D (D—down regulation (<0.7)) (2×)
Gene expression change CRL1 (U79527), divided by week 0 (week 6): D (D—down regulation (<0.7)) (4×) and nc and U (U—up regulation (>1.3))
Gene expression change IL8Rα (L19591), divided by week 0 (week 6): D (D—down regulation (<0.7)) (4×) and U (U—up regulation (>1.3)) and nc
Gene expression change RGS7 (BC022009), divided by week 0 (week 6): D (D—down regulation (<0.7)) (4×) and nc (2×)
expression level of CCR7 (week 6 compared with week 3): increased
expression level of CCRL1 (week 6 compared with week 3): increased
